The source of these data is article PMC8318587, “Structure-guided microbial targeting of antistaphylococcal prodrugs” (eLife, 2021).

Values after ≈ are worked out from the molar mass of the structure shown. Read-outs that look alike come from different tables or passages of the source.

In assay [1] the test system is S. aureus Newman. The assay is classed as cell-based, Staphylococcus aureus. Particulars: for Mutational frequency at 4× MIC / Mutational frequency at 10× MIC: LB agar, 24 hr, mean ± SD. How it is done: (§1) Antibiotic resistance frequency was determined on LB agar plates containing 4× and 10×, the minimum inhibitory concentrations of several antibiotics. MICs were determined for S. aureus Newman in liquid LB media. […] Briefly, S. aureus Newman was grown in LB media to late log-phase and centrifuged at 4000 × g for 15 min before resuspension at an OD600 nm of 30 (~1E11 CFU/mL) in LB media. One hundred microliter aliquots of concentrated S. aureus was plated in duplicate on selective and non-selective plates and incubated at 37°C. After 24 hr, mutation rates were calculated by counting the number of colonies present and dividing by the total number of colonies plated. Experiments were performed in triplicate.

Assay [2] concerns S. aureus Newman. In words: Minimum inhibitory concentration (MIC) in liquid LB media. The assay is classed as cell-based. Particulars: Staphylococcus aureus. How it is done:
as §1

The target in the next assay is T1, SaFrmB (Staphylococcus aureus, UniProt A0A0H3KFB7).
T1 construct: made in house; host or cells: E. coli BL21 (DE3)
T1 sequence (A0A0H3KFB7 1-253): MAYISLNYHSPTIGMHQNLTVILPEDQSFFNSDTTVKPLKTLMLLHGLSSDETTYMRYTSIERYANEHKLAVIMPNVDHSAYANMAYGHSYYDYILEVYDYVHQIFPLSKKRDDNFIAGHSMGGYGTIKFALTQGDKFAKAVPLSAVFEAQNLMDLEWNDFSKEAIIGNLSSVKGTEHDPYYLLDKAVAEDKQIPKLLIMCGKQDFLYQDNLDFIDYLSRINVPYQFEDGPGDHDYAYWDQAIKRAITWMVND
Description: Esterase substrate specificity, fluorogenic SAR library kinetics. The assay is classed as biochemical. Particulars: for kcat/kuncat: SaFrmB. The protocol: (§2) Kinetic measurements were performed according to [White et al., 2018] with minor variation. Lyophilized human and mouse sera were resuspended according to manufacturer instructions in highly pure, filtered water at protein concentrations of 85 mg/mL and 70 mg/mL, respectively. One milliliter of resuspended serum was added to a 24 mL mastermix for a final concentration of 31.25 mM Tris pH 7.5, 312.5 mM NaCl, 1.25 mM MgCl2, 12.5% glycerol, and 3.4 mg/mL or 2.8 mg/mL protein for human and mouse serum, respectively. For purified proteins, 5 mL of a 75 µg/mL stock was added to yield a 20 mL mastermix containing 31.25 mM Tris pH 7.5, 312.5 mM NaCl, 1.25 mM MgCl2, 12.5% glycerol, and 18.75 µg/mL protein. Mastermix was stored on ice when not in use. Twenty microliters of mastermix was transferred to a black, 96-well half area microplate (Corning, CLS3993) and prewarmed at 37°C. Fluorogenic substrates were prepared as 10 mM stock solutions in 100% DMSO and were diluted in water to a starting concentration of 500 µM. Enzyme catalyzed substrate hydrolysis was initiated by addition of 5 µL substrate dilution in technical duplicate to the prewarmed serum or protein solution. Final assay concentrations were as follows: 25 mM Tris pH 7.5, 250 mM NaCl, 1 mM MgCl2, 10% glycerol, and protein at a concentration of 2.72 mg/mL (human serum), 2.24 mg/mL (mouse serum), or 15 µg/mL (FrmB, GloB). The resulting change in fluorescence (λex = 485 nm, λem = 520 nm) was followed for 15 min at 37°C, collecting data every 30 s on a FLUOstar Omega microplate reader (BMG Labtech). Fluorescence measurements were converted to molar concentrations using a fluorescein standard curve (2.5 nmol–0.6 pmol). The initial rates of reaction were measured three independent times with two technical replicates per measurement and fit to a line using GraphPad Prism (GraphPad Software, La Jolla, CA). Initial rates of reaction were plotted versus the concentration of substrate and fit to a standard Michaelis–Menten equation (v = Vmax[S]/(Km + [S])), yielding estimates of Vmax and Km. Values for kcat and kcat/Km were calculated based on amount of enzyme added when purified enzymes were used.

The next assay concerns the target T2, SaGloB (Staphylococcus aureus, UniProt P0DY75).
T2 sequence (P0DY75 1-207): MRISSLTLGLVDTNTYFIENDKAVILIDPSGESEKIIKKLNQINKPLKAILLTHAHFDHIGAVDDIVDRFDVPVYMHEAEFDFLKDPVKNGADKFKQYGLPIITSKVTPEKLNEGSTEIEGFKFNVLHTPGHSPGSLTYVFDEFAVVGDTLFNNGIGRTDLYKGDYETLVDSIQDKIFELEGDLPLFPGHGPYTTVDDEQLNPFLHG
Described as above. The assay is classed as biochemical. Particulars: SaGloB; for kcat/kuncat: normalised to uncatalysed hydrolysis rate. The protocol:
as §2

Another assay concerns human sera. In words: Esterase substrate specificity, fluorogenic SAR library kinetics in serum. The assay is classed as in vitro ADME. How it is done:
as §2

Another assay concerns mouse sera. The description is as above. The assay is classed as in vitro ADME. The protocol: as §2
[3] abbreviates: S. aureus Newman, liquid LB media, read-out: MIC.

Take `CC(=O)NC[C@H]1CN(c2ccc(N3CCOCC3)c(F)c2)C(=O)O1` [Linezolid]: in the assay on S. aureus Newman [1], the “Mutational frequency at 4× MIC” value is <1 E-10 and the “Mutational frequency at 10× MIC” value is recorded as <1 E-10. Further, the minimum inhibitory concentration (MIC) with S. aureus Newman [2] (setting [3]) is 1.67 µg/mL (≈ 4.95 µM).
Take `CO[C@H]1/C=C/O[C@@]2(C)Oc3c(C)c(O)c4c(O)c(c(/C=N/N5CCN(C)CC5)c(O)c4c3C2=O)NC(=O)/C(C)=C\C=C\[C@H](C)[C@H](O)[C@@H](C)[C@@H](O)[C@@H](C)[C@H](OC(C)=O)[C@@H]1C` [Rifampicin]: in the assay with S. aureus Newman [1], the “Mutational frequency at 4× MIC” value is on record as 8.96 ± 0.20 E-08 and the “Mutational frequency at 10× MIC” value is 7.64 ± 2.10 E-08. The Spontaneous resistance frequency in the assay on S. aureus Newman [1] (at 4 and 10 times the MIC) is ~ 8E-8. The minimum inhibitory concentration (MIC) in the assay with S. aureus Newman [2] (setting [3]) is 0.0075 µg/mL (≈ 0.00911 µM).
As to `CCOc1ccc2ccccc2c1C(=O)N[C@@H]1C(=O)N2[C@@H]1SC(C)(C)[C@@H]2C(=O)O` [Nafcillin], in the assay on S. aureus Newman [1], the “Mutational frequency at 4× MIC” value is <1 E-10 and the “Mutational frequency at 10× MIC” value was <1 E-10. For the same molecule, the MIC in the assay with S. aureus Newman [2] (setting [3]) was 0.5 µg/mL (≈ 1.21 µM).
For `CN[C@H](CC(C)C)C(=O)N[C@H]1C(=O)N[C@@H](CC(N)=O)C(=O)N[C@H]2C(=O)N[C@H]3C(=O)N[C@H](C(=O)N[C@H](C(=O)O)c4cc(O)cc(O)c4-c4cc3ccc4O)[C@H](O)c3ccc(c(Cl)c3)Oc3cc2cc(c3O[C@@H]2O[C@H](CO)[C@@H](O)[C@H](O)[C@H]2O[C@H]2C[C@](C)(N)[C@H](O)[C@H](C)O2)Oc2ccc(cc2Cl)[C@H]1O` [Vancomycin], in the assay on S. aureus Newman [1], the “Mutational frequency at 4× MIC” value is given as <1 E-10 and the “Mutational frequency at 10× MIC” value is reported as <1 E-10. In the assay on S. aureus Newman [2] (NEWMAN), this molecule came in with an MIC of 2 µg/mL (≈ 1.38 µM).
`CCCOCC(=O)OCOc1ccc2c(c1)Oc1cc(OCOC(=O)COCCC)ccc1C21OC(=O)c2ccccc21` [3O]: the figures for the kcat/kuncat on SaFrmB and on SaGloB were 0.911 103 and 4.91 103, respectively. In addition, the Km is 22.2 µM in the assay on human sera and above 50 µM in the assay with mouse sera. For the same molecule, the Vmax in the assay on human sera is 11.7 pmol*min-1*mg sera-1.
On to `CCSC(C)C(=O)OCOc1ccc2c(c1)Oc1cc(OCOC(=O)C(C)SCC)ccc1C21OC(=O)c2ccccc21` (stereo not shown) [8S], for which the Km at SaFrmB (SaFrmB 15 µg/mL, pH 7.5, 37°C) is above 50 µM; in the assay with human sera it was above 50 µM; with mouse sera, above 50 µM. Also, the kcat/kuncat on SaGloB is 9.01 103.
As to `CC(C)SCC(=O)OCOc1ccc2c(c1)Oc1cc(OCOC(=O)CSC(C)C)ccc1C21OC(=O)c2ccccc21` [6S], the kcat/kuncat at SaFrmB is recorded as 2.44 103; at SaGloB, 12.9 103. In addition, the Km in the assay with human sera and in the assay on mouse sera was above 50 µM in each case.
As for `COC(C)(C)C(=O)OCOc1ccc2c(c1)Oc1cc(OCOC(=O)C(C)(C)OC)ccc1C21OC(=O)c2ccccc21` [10O], the kcat/kuncat on SaFrmB is 4.97 103. In addition, the Km at SaGloB (fluorogenic ester substrate) is above 50 µM; in the assay with human sera it was 63.3 µM; in the assay with mouse sera it was above 50 µM. In addition, the Vmax with human sera was 1.46 pmol*min-1*mg sera-1.
Take `CCC[C@@H]1C[C@@H](C(=O)N[C@@H]([C@H]2O[C@H](SC)[C@H](O)[C@@H](O)[C@H]2O)[C@H](C)Cl)N(C)C1` [Clindamycin]: in the assay with S. aureus Newman [1], the “Mutational frequency at 4× MIC” value is listed as <1 E-10 and the “Mutational frequency at 10× MIC” value is recorded as <1 E-10. Also, the MIC in the assay on S. aureus Newman [2] (setting [3]) amounted to 0.25 µg/mL (≈ 0.588 µM).
